Key:
Type in all cases: in vivo
[1] = test system: Digitaria sanguinalis; experiment: Seedling stage sealing experiment for water-seeding; conditions: 120 g a.i./ha, 15 days, fresh weight control rate
In short: (§1)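 Seeds broadcast on soil in nutrition bowls, covered, kept moist in a water-filled box; compound in acetone diluted with water and spray-tower applied at 120, 60, 30 and 15 g a.i./ha, triplicate. Scored after 15 days in greenhouse on a 0–9 scale of fresh-weight growth control, averaged.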

[2] = test system: Echinochloa crusgalli; experiment: as above; conditions: 120 g a.i./ha, 15 days, fresh weight control rate
[3] = test system: Leptochloa chinensis; experiment: as above; conditions: 120 g a.i./ha, 15 days, fresh weight control rate
In short: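 Seeds sown in soil-filled bowls kept moist in water-filled boxes; compound in acetone diluted with water and spray-applied at 120, 60, 30 and 15 g a.i./ha, triplicate. After 15 days in greenhouse, fresh-weight growth control scored on a 0–9 scale (9 = dead, 0 = no effect), averaged.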

[4] = test system: Echinochloa phyllopogon; experiment: as above; conditions: 120 g a.i./ha, 15 days, fresh weight control rate
In short: as §1

[5] = test system: Huaidao (rice cultivar); experiment: Seedling stage sealing experiment for water-seeding (crop safety); conditions: 120 g a.i./ha, 15 days, fresh weight control rate; for Huaidao (rice cultivar) plant damage level (growth control rate): spray, seedling stage sealing for water-seeding; for Huaidao (rice cultivar) plant damage level: seedling stage sealing
In short: as §1

[6] = spray, seedling stage sealing for water-seeding

| SMILES | Digitaria sanguinalis activity level (growth control rate) ([1]; seedling stage sealing) | Echinochloa crusgalli activity level (growth control rate) ([2]; seedling stage sealing) | Leptochloa chinensis activity level (growth control rate) [3] | Digitaria sanguinalis activity level (growth control rate) [1, 6] | Echinochloa crusgalli activity level (growth control rate) [2, 6] | Echinochloa phyllopogon activity level (growth control rate) [4, 6] | Huaidao (rice cultivar) plant damage level (growth control rate) [5] | Echinochloa phyllopogon activity level (growth control rate) ([4]; seedling stage sealing) | Huaidao (rice cultivar) plant damage level [5] |
| --- | --- | --- | --- | --- | --- | --- | --- | --- | --- |
| CN1CC(c2ccc(Cl)s2)C(C(=O)Nc2cnn(C)c2Cl)C1=O (stereo not shown) [Compound 339] | 7 (Level 7: growth control rate greater than or equal to 80% and less than 90%) | 9 | 6 (Level 6: growth control rate greater than or equal to 70% and less than 80%) | – | – | – | – | – | – |
| CCCCOc1cccc(C2CN(C)C(=O)C2C(=O)Nc2cnn(C)c2Cl)c1 (stereo not shown) [Compound 221] | 9 | – | 9 | – | – | – | – | – | – |
| Cc1ccc([C@H]2CN(C)C(=O)[C@@H]2C(=O)Nc2cnn(C)c2Cl)cc1F [313′] | 9 | 9 | 9 | – | – | – | – | – | – |
| CCn1ncc(NC(=O)[C@H]2C(=O)N(C)C[C@@H]2c2cccc(C(F)(F)F)c2)c1F [533′] | – | – | – | 9 | 9 | 9 | 0 | – | – |
| COc1cccc(C2CN(C)C(=O)C2C(=O)Nc2cnn(C)c2Cl)c1 (stereo not shown) [Compound 28] | 9 | 9 | – | – | – | – | – | 9 | 0 |
| Cc1cc([C@H]2CN(C)C(=O)[C@@H]2C(=O)Nc2cnn(C)c2C2CC2)cc(C(F)(F)F)c1 [561′] | – | – | – | 9 | 9 | 9 | 1 (Level 1: growth control rate less than 10%) | – | – |
| CC(C)Oc1cccc(C2CN(C)C(=O)C2C(=O)Nc2cnn(C)c2Cl)c1 (stereo not shown) [Compound 29] | 9 | 9 | – | – | – | – | – | 9 | 0 |
| Cc1cc([C@H]2CN(C)C(=O)[C@@H]2C(=O)Nc2cnn(C(F)F)c2Cl)cc(C(F)(F)F)c1 [560′] | – | – | – | 9 | 9 | 9 | 0 | – | – |
| Cc1cccc([C@H]2CN(C)C(=O)[C@@H]2C(=O)Nc2cnn(C)c2C(F)F)c1 [524′] | – | – | – | 9 | 9 | 9 | 2 (Level 2: growth control rate greater than or equal to 10% and less than 20%) | – | – |
| CN1CC(c2cccc(C(F)(F)F)c2)C(C(=O)Nc2cnn(C)c2)C1=O (stereo not shown) [Compound 156] | 7 (Level 7: growth control rate greater than or equal to 80% and less than 90%) | 6 (Level 6: growth control rate greater than or equal to 70% and less than 80%) | – | – | – | – | – | 6 (Level 6: growth control rate greater than or equal to 70% and less than 80%) | 0 |
| CCn1ncc(NC(=O)[C@H]2C(=O)N(C)C[C@@H]2c2cccc(C)c2)c1F [523′] | – | – | – | 9 | 9 | 6 (Level 6: growth control rate greater than or equal to 70% and less than 80%) | 0 | – | – |
